Laboratory results as given in patent US9566307B2, “Pharmaceutical composition” (priority 2012, dated 2017).
Residues, ends and D or L forms follow the SMILES beside them. *: point of attachment. Cbz = O=C(OCc1ccccc1)*; CH2F = FC*

What was measured:
[1] = test system: T.Tn (esophageal cancer cell line); experiment: Effects of various inhibitors to cytotoxicity of EV4 type (1), microscope images; assay type: cell-based, human; settings: EV4 type MOI=0.1, four days after infection, 100 μM Z-VADfmk, 25 μM LY294002, 0.1 μM PD0325901, 1.0 μM bpV, FIG. 2
Protocol: The inhibitors tested to check the effects to the cytotoxicity of EV4 type were Z-VADfmk (R&D System Corporation) as a pan-caspase inhibitor, LY294002 (Santa Cruz Biotechnology Corporation) as a PI3K inhibitor, PD0325901 (Wako Corporation) as an MEK inhibitor, and bpV (Merck Corporation) as a PTEN inhibitor.
T.Tn was disseminated in a plate with 96 wells at 1×10^4 cells/well, and the plate was left stationary under a condition of 37° C. and 5% CO2. The culture medium in the well was replaced with a culture medium added with each inhibitor so as to be 100 μl/well. As to the concentrations of the respective inhibitors, 100 μM for Z-VADfmk, 25 μM for LY294002, 0.1 μM for PD0325901, and 1.0 μM for bpV. After the culture medium was replaced, the plate was left stationary under a condition of 37° C. and 5% CO2 for one hour. After the culture medium was eliminated, 100 μl of the diluted solution of EV4 type diluted with OPTI-MEM I so as to make EV4 type to be MOI=0.1 was added to each well, and was left stationary under a condition of 37° C. and 5% CO2 for one hour. Next, the diluted solution of EV4 type was eliminated, and the RPMI culture media containing the respective inhibitors were added to respective wells, and were co-cultured. Four days after the start of co-culturing, the image of each well was picked up by an optical microscope. Note that the concentration of each inhibitor was set to be a concentration expected not showing a cytotoxicity to T.Tn.

[2] = test system: WiDr; experiment: Oxaliplatin resistance check, cell survival rate by MTS technique; assay type: cell-based, human; settings: oxaliplatin 200 μM, 48 hours, FIG. 17
Protocol: (§1) In addition, in order to check the oxaliplatin resistance of, among the test-target cells, WiDr and HT29, respective cell survival rates of WiDr and HT29 after cultured for 48 hours in culture media containing oxaliplatin of a predetermined concentration were evaluated through an MTS technique.

[3] = test system: HT29; experiment: as above; assay type: cell-based, human; settings: HT29, oxaliplatin 100 μM, 48 hours; FIG. 17
Protocol: as §1

[4] = test system: TE8 tumor indicating a resistivity against CDDP; experiment: In vivo antitumor effect of EV4 type to CDDP resistant tumor, tumor volume; parameters: species or system nude mouse; settings: CDDP administered group, 125 μg/administration in abdominal cavity on second day; FIG. 10
Protocol: The tumor refraction performance of EV4 type to a TE8 bearing nude mouse indicating a resistivity against CDDP (also called cisplatin) utilized in chemotherapies for esophageal cancer was examined. A nude mouse was inoculated with TE8 like the fifth example (0th day), and when it was confirmed that the tumor major axis became equal to or greater than 4 mm, CDDP dissolved in a normal saline solution was administered in an abdominal cavity at 125 μg/administration (second day). Note that for a non-treated group, the same amount of normal saline solution was administered. Eight days after the inoculation of TE8, furthermore, an EV4 type solution suspended in OPTI-MEM I of 50 μl was administered in the tumor once per a day and at a total of five times and at 1×10^7 TCID50/administration or 5×10^7 TCID50/administration. For the non-treated group and the CDDP administered group, the same amount of OPTI-MEM I was administered. The evaluation items were the tumor volume and the body weight like the fourth example.

[5] = test system: TE8 cells; experiment: Effect of MEK inhibitor to cytotoxicity of EV4 type (2), Celltilter-Glo living cell quantitation; assay type: cell-based, human; settings: EV4 type MOI=1.0, PD0325901 50-nM, 48 hours co-culturing, FIG. 3
Protocol: An effect of an MEK inhibitor PD0325901 to the cytotoxicity of EV4 type was quantitatively examined.
TE8 cells was disseminated in a plate with 96 wells at 1×10^4 cells/well, and the plate was left stationary for six hours under a condition of 37° C. and 5% CO2. The culture medium in the well was replaced with a culture medium containing a DMSO solution of PD0325901 of 50-nM. After the culture medium was replaced, the plate was left stationary for one hour under a condition of 37° C. and 5% CO2. After the culture medium was eliminated, 100 μl of EV4 type diluted solution diluted with OPTI-MEM I so as to have MOI=1.0 was added to each well, and the plate was left stationary for one hour under a condition of 37° C. and 5% CO2. For a control, a diluted solution of 100 μl containing no EV4 type was added. Next, the diluted solution was eliminated, and the culture media containing PD0325901 were added to respective wells, and were co-cultured. 48 hours after the start of co-culturing, living cells were quantitated using a Celltilter-Glo (Registered Trademark) kit of Promega corporation.

Compound | Effect of inhibitor on the cytotoxicity by EV4 type [1] | further results
bpV | reduced | 
O=c1cc(N2CCOCC2)oc2c(-c3ccccc3)cccc12 [LY294002] | enhanced | 
O=C1[O][Pt]2([NH][C@@H]3CCCC[C@H]3[NH]2)[O]C1=O [oxaliplatin] |  | Cell survival rate [2]: maintained the similar level of cell survival rate to those of the control group; Cell survival rate [3]: maintained the similar level of cell survival rate to those of the control group
[NH2][Pt]([NH2])([Cl])[Cl] [CDDP, cisplatin] |  | Tumor volume, change with time [4]: suppression of the increase of the tumor volume for eight days, but the increase of the tumor volume was observed thereafter
O=C(NOC[C@H](O)CO)c1ccc(F)c(F)c1Nc1ccc(I)cc1F [PD0325901] | enhanced | Effect of inhibitor on the cytotoxicity of EV4 type (cell survival rate) [5]: significantly enhanced
COC(=O)C[C@H](NC(=O)[C@H](C)NC(=O)[C@@H](NC(=O)OCc1ccccc1)C(C)C)C(=O)CF [Z-VADfmk] (Cbz-Val-Ala-Asp(OMe)-CH2F) | reduced | 
